Measurements as given in US4508648A, “Phosphoric ester of antibiotic OA-6129” (Sanraku-Ocean Co., Ltd., priority 1981, dated 1985).
Values after ≈ are worked out from the molar mass of the structure shown. Where two headings read alike, the source gives them in different places.

Key:
[1] = Relative stability in kidney homogenate of man; type: in vitro ADME; conditions: human (man) kidney homogenate; 37° C., 60 minutes; drug solution 100-300 μg/ml; read-out: Relative stability: drug remaining as a percentage of initial concentration
Method: (§1) *A drug solution (100-300 μg/ml) (0.1 ml) and a kidney homogenate (0.1
(§2) ml) were allowed to react at 37° C. for 60 minutes and the mixture
(§3) was immediately heattreated at 100° C. for 15 seconds. After
(§4) centrifugation, the concentration of the drug remaining in the supernatan
(§5) solution was bioassayed as a percentage of initial concentration by
(§6) Comamonas terrigena B996.
(§7) An overnight culture of Comamonas terrigena B-996 on a nutrient agar slant was suspended in nutrient broth to give a cell suspension of absorbance 0.04 at 610 nm. One percent of the cell suspension in volume was inoculated into molten agar medium containing 0.8% in weight of Kyokuto powdered bouillon (Kyokuto Pharmaceutical Co.) and 1.0% in weight of Bato-agar (Difco Lab.), and 7 ml each of the inoculated agar medium was poured into a 9 cm petri dish to make a Comamonas assay plate.

[2] = Relative stability in kidney homogenate of dog; type: in vitro ADME; conditions: 37° C., 60 minutes, drug solution 100-300 μg/ml, read-out: Relative stability: drug remaining as a percentage of initial concentration
Method: as §1, §2, §3, §4, §5, §6, §7

[3] = Relative stability in kidney homogenate of mouse; type: in vitro ADME; conditions: 37° C., 60 minutes, drug solution 100-300 μg/ml, read-out: Relative stability: drug remaining as a percentage of initial concentration
Method: as §1, §2, §3, §4, §5, §6, §7

[4] = Relative stability in phosphate buffer, pH 7.0 (control); type: physicochemical; conditions: 37° C., 60 minutes, drug solution 100-300 μg/ml, read-out: Relative stability: drug remaining as a percentage of initial concentration
Method: as §1, §2, §3, §4, §5, §6, §7

Proteus vulgaris GN76 = experiment: Minimum inhibitory concentration, agar dilution technique; type: cell-based; conditions: beta-lactam-resistant strain, heart infusion agar, inoculum 10^6 cells/ml, read-out: Minimum Inhibitory Concentration (M.I.C.)
From the text: (§8) Minimum Inhibitory Concentration (M.I.C. in μg/ml)**
(§9) *Beta-lactam-resistant strain.
(§10) **Medium heartinfusion agar (Difco Lab.); inoculum size 10^6 cells/ml
(§11) determined by the agar dilution technique

Serratia marcescens T55 = experiment: as above; type: cell-based; conditions: beta-lactam-resistant strain, heart infusion agar, inoculum 10^6 cells/ml, read-out: Minimum Inhibitory Concentration (M.I.C.)
From the text: as §8, §9, §10, §11

[5] = system: Citrobacter freundii GN346; experiment: as above; type: cell-based; conditions: beta-lactam-resistant strain, heart infusion agar, inoculum 10^6 cells/ml, read-out: Minimum Inhibitory Concentration (M.I.C.)
From the text: as §8, §9, §10, §11

Proteus sp. P-22 = experiment: as above; type: cell-based; conditions: beta-lactam-resistant strain; heart infusion agar; inoculum 10^6 cells/ml; read-out: Minimum Inhibitory Concentration (M.I.C.)
From the text: as §8, §9, §10, §11

Serratia marcescens S-18 = experiment: as above; type: cell-based; conditions: S18, beta-lactam-resistant strain, heart infusion agar, inoculum 10^6 cells/ml, read-out: Minimum Inhibitory Concentration (M.I.C.)
From the text: as §8, §9, §10, §11

Escherichia coli RGN823 = experiment: as above; type: cell-based; conditions: RGN823, read-out: Minimum Inhibitory Concentration (M.I.C.)
From the text: as §8, §9, §10, §11

[6] = system: Pseudomonas aeruginosa NCTC 10490; experiment: as above; type: cell-based; conditions: NCTC10490, beta-lactam-resistant strain, heart infusion agar, inoculum 10^6 cells/ml, read-out: Minimum Inhibitory Concentration (M.I.C.)
From the text: as §8, §9, §10, §11

Enterobacter cloacae 45 = experiment: as above; type: cell-based; conditions: beta-lactam-resistant strain, heart infusion agar, inoculum 10^6 cells/ml, read-out: Minimum Inhibitory Concentration (M.I.C.)
From the text: as §8, §9, §10, §11

[7] = system: Klebsiella pneumoniae K13; experiment: as above; type: cell-based; conditions: K13, beta-lactam-resistant strain, heart infusion agar, inoculum 10^6 cells/ml, read-out: Minimum Inhibitory Concentration (M.I.C.)
From the text: as §8, §9, §10, §11

[8] = system: Pseudomonas aeruginosa IFO 3445; experiment: as above; type: cell-based; conditions: IFO3445, beta-lactam-resistant strain, heart infusion agar, inoculum 10^6 cells/ml, read-out: Minimum Inhibitory Concentration (M.I.C.)
From the text: as §8, §9, §10, §11

[9] = system: Enterobacter aerogenes E-19; experiment: as above; type: cell-based; conditions: Klebsiella aerogenes, E19; beta-lactam-resistant strain; heart infusion agar; inoculum 10^6 cells/ml; read-out: Minimum Inhibitory Concentration (M.I.C.)
From the text: as §8, §9, §10, §11

Sarcina lutea = experiment: as above; type: cell-based; conditions: Micrococcus luteus; heart infusion agar; inoculum 10^6 cells/ml; read-out: Minimum Inhibitory Concentration (M.I.C.)
From the text: as §8, §10, §11

Enterobacter sp. E-8 = experiment: as above; type: cell-based; conditions: SP.E8, heart infusion agar, inoculum 10^6 cells/ml, read-out: Minimum Inhibitory Concentration (M.I.C.)
From the text: as §8, §10, §11

[10] = system: Staphylococcus aureus Smith; experiment: as above; type: cell-based; conditions: read-out: Minimum Inhibitory Concentration (M.I.C.)
From the text: as §8, §10, §11

Escherichia coli K-12 = experiment: as above; type: cell-based; conditions: K12, heart infusion agar, inoculum 10^6 cells/ml, read-out: Minimum Inhibitory Concentration (M.I.C.)
From the text: as §8, §10, §11

[11] = system: Bacillus subtilis ATCC 6633; experiment: as above; type: cell-based
From the text: as §8, §10, §11

[12] = system: Staphylococcus aureus 209P; experiment: as above; type: cell-based; conditions: heart infusion agar, inoculum 10^6 cells/ml, read-out: Minimum Inhibitory Concentration (M.I.C.)
From the text: as §8, §10, §11

Proteus rettgeri P-6 = experiment: as above; type: cell-based; conditions: Providencia rettgeri, P6; heart infusion agar; inoculum 10^6 cells/ml; read-out: Minimum Inhibitory Concentration (M.I.C.)
From the text: as §8, §10, §11

Proteus mirabilis P-6 = experiment: as above; type: cell-based; conditions: P6, heart infusion agar, inoculum 10^6 cells/ml, read-out: Minimum Inhibitory Concentration (M.I.C.)
From the text: as §8, §10, §11

[13] = system: Staphylococcus epidermidis; experiment: as above; type: cell-based; conditions: heart infusion agar, inoculum 10^6 cells/ml, read-out: Minimum Inhibitory Concentration (M.I.C.)
From the text: as §8, §10, §11

Alcaligenes faecalis A1 = experiment: as above; type: cell-based; conditions: heart infusion agar, inoculum 10^6 cells/ml, read-out: Minimum Inhibitory Concentration (M.I.C.)
From the text: as §8, §10, §11

[14] = system: Comamonas terrigena B-996; experiment: as above; type: cell-based; conditions: B996, heart infusion agar, inoculum 10^6 cells/ml, read-out: Minimum Inhibitory Concentration (M.I.C.)
From the text: as §8, §10, §11

[15] = system: Staphylococcus aureus Russell; experiment: as above; type: cell-based; conditions: heart infusion agar, inoculum 10^6 cells/ml, read-out: Minimum Inhibitory Concentration (M.I.C.)
From the text: as §8, §10, §11

Providencia sp. P-8 = experiment: as above; type: cell-based; conditions: SP.P8, heart infusion agar, inoculum 10^6 cells/ml, read-out: Minimum Inhibitory Concentration (M.I.C.)
From the text: as §8, §10, §11

Structure (SMILES) | remaining at 1 h [1] [%] | remaining at 1 h [2] [%] | remaining at 1 h [3] [%] | remaining at 1 h [4] [%] | MIC (Proteus vulgaris GN76) [µg/mL] | MIC (Serratia marcescens T55) [µg/mL] | MIC [5] [µg/mL] | MIC (Proteus sp. P-22) [µg/mL] | MIC (Serratia marcescens S-18) [µg/mL] | MIC (Escherichia coli RGN823) [µg/mL] | MIC [6] [µg/mL] | MIC (Enterobacter cloacae 45) [µg/mL] | MIC [7] [µg/mL] | MIC [8] [µg/mL] | MIC [9] [µg/mL] | MIC (Sarcina lutea) [µg/mL] | MIC (Enterobacter sp. E-8) [µg/mL] | MIC (Escherichia coli K-12) [µg/mL] | MIC [12] [µg/mL] | MIC (Proteus rettgeri P-6) [µg/mL] | further results
CCC1C(=O)N2C(C(=O)O)=C(SCCNC(C)=O)CC12 (centres unmarked) [Antibiotic PS-5] | 28 | 10 | 10 | 100 | – | – | – | – | – | – | – | – | – | – | – | – | – | – | – | – | –
Cc1nnc(SCC2=C(C(=O)O)N3C(=O)[C@@H](NC(=O)Cn4cnnn4)[C@H]3SC2)s1 [Cefazolin] | – | – | – | – | > 400 | > 400 | > 400 | > 400 | > 400 | 1.56 (≈ 3.43 µM) | > 400 | > 400 | 12.5 (≈ 27.5 µM) | > 400 | > 400 | 0.39 (≈ 0.858 µM) | 1.56 (≈ 3.43 µM) | 1.56 (≈ 3.43 µM) | 0.05 (≈ 0.11 µM) | 3.13 (≈ 6.89 µM) | MIC ([10]; heart infusion agar, inoculum 10^6 cells/ml): 0.2 µg/mL (≈ 0.44 µM); MIC ([11]; ATCC6633, heart infusion agar, inoculum 10^6 cells/ml, read-out: Minimum Inhibitory Concentration (M.I.C.)): 0.1 µg/mL (≈ 0.22 µM); MIC (Proteus mirabilis P-6): 6.25 µg/mL (≈ 13.8 µM); MIC [13]: 0.2 µg/mL (≈ 0.44 µM); MIC (Alcaligenes faecalis A1): 3.13 µg/mL (≈ 6.89 µM); MIC [14]: 0.1 µg/mL (≈ 0.22 µM); MIC [15]: 0.2 µg/mL (≈ 0.44 µM); MIC (Providencia sp. P-8): 0.78 µg/mL (≈ 1.72 µM)
CCC1C(=O)N2C(C(=O)O)=C(SCCNC(=O)CCNC(=O)C(O)C(C)(C)COP(=O)(O)O)CC12 (centres unmarked) [Phosphoric ester of antibiotic OA-6129A] | 96 | 18 | 47 | 114 | 25 (≈ 46.5 µM) | > 25 | > 25 | 25 (≈ 46.5 µM) | 25 (≈ 46.5 µM) | 3.13 (≈ 5.82 µM) | > 25 | 25 (≈ 46.5 µM) | 25 (≈ 46.5 µM) | > 25 | 12.5 (≈ 23.3 µM) | 6.25 (≈ 11.6 µM) | 3.13 (≈ 5.82 µM) | 3.13 (≈ 5.82 µM) | 1.56 (≈ 2.9 µM) | 12.5 (≈ 23.3 µM) | MIC [10]: 3.13 µg/mL (≈ 5.82 µM); MIC ([11]; ATCC6633, read-out: Minimum Inhibitory Concentration (M.I.C.)): 3.13 µg/mL (≈ 5.82 µM); MIC (Proteus mirabilis P-6): 25 µg/mL (≈ 46.5 µM); MIC [13]: 6.25 µg/mL (≈ 11.6 µM); MIC (Alcaligenes faecalis A1): 1.56 µg/mL (≈ 2.9 µM); MIC [14]: 0.05 µg/mL (≈ 0.093 µM); MIC [15]: 6.25 µg/mL (≈ 11.6 µM); MIC (Providencia sp. P-8): 6.25 µg/mL (≈ 11.6 µM)
